Molecules are shown by their SMILES.

The nature of this assay: Inhibition of sweet almond beta-glucosidase after 10 mins using 4-nitrophenylbeta-D-glucopyranoside as a substrate by Lineweaver-Burk and double reciprocal analysis. On the set-up: species or system Prunus dulcis.

As for `OC[C@@H]1[C@@H](O)[C@H](O)[C@@H](O)c2nccn21`, the Ki (in general, the equilibrium dissociation constant of an inhibitor or competing ligand from its target) came to 100 nM.
The value for `OC[C@@H]1[C@@H](O)[C@H](O)[C@@H](O)c2nc(CCc3ccccc3)cn21` was 1.9 nM; that for `CC(C)(C)CCc1cn2c(n1)[C@H](O)[C@@H](O)[C@H](O)[C@H]2CO` was 0.64 nM.
Regarding `CCCCCCCCc1cn2c(n1)[C@H](O)[C@@H](O)[C@H](O)[C@H]2CO`, the Ki came to 10.7 nM.
Under `Cc1ccc(CCc2cn3c(n2)[C@H](O)[C@@H](O)[C@H](O)[C@H]3CO)cc1` stands 0.58 nM.
`COc1ccc(CCc2cn3c(n2)[C@H](O)[C@@H](O)[C@H](O)[C@H]3CO)cc1` showed an inhibition constant Ki of 2 nM. Against the preceding molecule, the Ki is about 3.4-fold higher.
`OC[C@@H]1[C@@H](O)[C@H](O)[C@@H](O)c2nc(CCc3ccc(-c4ccccc4)cc3)cn21`: the inhibitory constant (Ki) amounted to 24.5 nM. Compared with the last molecule, the Ki is about 12-fold higher.
The value for `OC[C@@H]1[C@@H](O)[C@H](O)[C@@H](O)c2nc(CCc3ccc(C4CCCCC4)cc3)cn21` was 56.1 nM.
The value for `OC[C@@H]1[C@@H](O)[C@H](O)[C@@H](O)c2nc(CCc3ccc(F)cc3)cn21` was 3.2 nM; that for `O=C(CCc1cn2c(n1)[C@H](O)[C@@H](O)[C@H](O)[C@H]2CO)Nc1ccccc1` was 6.8 nM.
Regarding `CC(C)(CCc1cn2c(n1)[C@H](O)[C@@H](O)[C@H](O)[C@H]2CO)C(=O)Nc1ccccc1`, the Ki was 3.5 nM.

For the origin of these results see ChEMBL document CHEMBL1765013, “Structure-activity relationships in a series of C2-substituted gluco-configured tetrahydroimidazopyridines as β-glucosidase inhibitors” (Bioorg Med Chem, 2011).
